Experimental data: patent publication US20080214845A1, “ANTIBACTERIAL 6'-MODIFIED 4,5-SUBSTITUTED AMINOGLYCOSIDE ANALOGS” (priority 2005, published 2008)
Converted amounts (≈) assume the structure as drawn.

Legend:
E. Coli. = test: Minimum inhibitory concentration (MIC), E. coli; type: cell-based; conditions: range of concentration, 20-24 hours at 37° C., A595; for MIC: Escherichia coli
Experimental: (§1) The assays are carried out in 150 μL volume in duplicate in 96-well clear flat-bottom plates. The bacterial suspension from an overnight culture growth in appropriate medium is added to a solution of test compound in 2.5% DMSO in water. Final bacterial inoculum is approximately 10^2-10^3 CFU/well. The percentage growth of the bacteria in test wells relative to that observed for a control wells containing no compound is determined by measuring absorbance at 595 nm (A595) after 20-24 hours at 37° C. The MIC is determined as a range of concentration where complete inhibition of growth is observed at the higher concentration and bacterial cells are viable at the lower concentration. Both ampicillin and tetracycline are used as antibiotic positive controls in each screening assay.

S. Aureus = test: Minimum inhibitory concentration (MIC), S. aureus; type: cell-based; conditions: range of concentration, 20-24 hours at 37° C., A595; for MIC: Staphylococcus aureus
Experimental: as §1

SMILES	MIC E. Coli. (E. Coli.)	MIC S. Aureus (S. Aureus)	MIC (E. Coli.)	MIC (S. Aureus)
COc1ccccc1CCNC[C@H]1O[C@H](O[C@H]2[C@H](O[C@@H]3O[C@H](CO)[C@@H](O[C@H]4O[C@@H](CN)[C@@H](O)[C@H](O)[C@H]4N)[C@H]3O)[C@@H](O)[C@H](N)C[C@@H]2N)[C@H](N)[C@@H](O)[C@@H]1O [IBIS00561935]	1.25 to 2.5 µM	0.31 to 0.62 µM		
CN(CCc1ccccc1)C[C@H]1O[C@H](O[C@H]2[C@H](O[C@@H]3O[C@H](CO)[C@@H](O[C@H]4O[C@@H](CN)[C@@H](O)[C@H](O)[C@H]4N)[C@H]3O)[C@@H](O)[C@H](N)C[C@@H]2N)[C@H](N)[C@@H](O)[C@@H]1O [IBIS00561931]	2.5 to 5.0 µM	0.31 to 0.62 µM		
NC[C@@H]1O[C@H](O[C@H]2[C@@H](O)[C@H](O[C@@H]3[C@@H](O)[C@H](N)C[C@H](N)[C@H]3O[C@H]3O[C@H](CNCCc4ccc(F)cc4)[C@@H](O)[C@H](O)[C@H]3N)O[C@@H]2CO)[C@H](N)[C@@H](O)[C@@H]1O [IBIS00561944]	0.6 to 1.2 µM	0.16 to 0.31 µM		
NCC1OC(OC2C(CO)OC(OC3C(O)C(N)CC(N)C3OC3OC(CNCC(O)c4ccccc4)C(O)C(O)C3N)C2O)C(N)C(O)C1O (stereo not shown) [IBIS00561937]	5.0 to 10.0 µM	0.6 to 1.2 µM		
Cc1ccc(CCNC[C@H]2O[C@H](O[C@H]3[C@H](O[C@@H]4O[C@H](CO)[C@@H](O[C@H]5O[C@@H](CN)[C@@H](O)[C@H](O)[C@H]5N)[C@H]4O)[C@@H](O)[C@H](N)C[C@@H]3N)[C@H](N)[C@@H](O)[C@@H]2O)cc1 [IBIS00561930]	2.5 to 5.0 µM	0.6 to 1.2 µM		
NCC1OC(OC2C(CO)OC(OC3C(O)C(N)CC(N)C3OC3OC(CNCCc4c[nH]c5ccccc45)C(O)C(O)C3N)C2O)C(N)C(O)C1O (stereo not shown) [IBIS00561940]	1.25 to 2.5 µM	1.25 to 2.5 µM		
COc1cccc(CCNC[C@H]2O[C@H](O[C@H]3[C@H](O[C@@H]4O[C@H](CO)[C@@H](O[C@H]5O[C@@H](CN)[C@@H](O)[C@H](O)[C@H]5N)[C@H]4O)[C@@H](O)[C@H](N)C[C@@H]3N)[C@H](N)[C@@H](O)[C@@H]2O)c1 [IBIS00561934]	1.25 to 2.5 µM	0.31 to 0.62 µM		
COc1ccc(CCNC[C@H]2O[C@H](O[C@H]3[C@H](O[C@@H]4O[C@H](CO)[C@@H](O[C@H]5O[C@@H](CN)[C@@H](O)[C@H](O)[C@H]5N)[C@H]4O)[C@@H](O)[C@H](N)C[C@@H]3N)[C@H](N)[C@@H](O)[C@@H]2O)cc1 [IBIS00561933]			1.25 to 2.5 µM (≈ 0.936 to 1.87 µg/mL)	0.31 to 0.62 µM (≈ 0.232 to 0.464 µg/mL)
NC[C@@H]1O[C@H](O[C@H]2[C@@H](O)[C@H](O[C@@H]3[C@@H](O)[C@H](N)C[C@H](N)[C@H]3O[C@H]3O[C@H](CNCCCc4ccccc4)[C@@H](O)[C@H](O)[C@H]3N)O[C@@H]2CO)[C@H](N)[C@@H](O)[C@@H]1O [IBIS00561932]	0.6 to 1.2 µM	0.31 to 0.62 µM		
NC[C@@H]1O[C@H](O[C@H]2[C@@H](O)[C@H](O[C@@H]3[C@@H](O)[C@H](N)C[C@H](N)[C@H]3O[C@H]3O[C@H](CNCCc4cccc(C(F)(F)F)c4)[C@@H](O)[C@H](O)[C@H]3N)O[C@@H]2CO)[C@H](N)[C@@H](O)[C@@H]1O [IBIS00561943]			0.6 to 1.2 µM (≈ 0.472 to 0.944 µg/mL)	0.16 to 0.31 µM (≈ 0.126 to 0.244 µg/mL)
NC[C@@H]1O[C@H](O[C@H]2[C@@H](O)[C@H](O[C@@H]3[C@@H](O)[C@H](N)C[C@H](N)[C@H]3O[C@H]3O[C@H](CN4CCC5CCCCC54)[C@@H](O)[C@H](O)[C@H]3N)O[C@@H]2CO)[C@H](N)[C@@H](O)[C@@H]1O (stereo partly shown) [IBIS00561939]			1.25 to 2.5 µM (≈ 0.904 to 1.81 µg/mL)	0.31 to 0.62 µM (≈ 0.224 to 0.448 µg/mL)
